Data from a melting point compilation (Tetko et al.; mined from patent text by program, amines drawn as free bases though some values may be those of a salt).

| Structure (SMILES) | melting point [°C] |
| --- | --- |
| CN(C)CCc1ccc(O)c2[nH]ncc12 | 223 to 227 |
| CC(=O)Nc1ccc(S(=O)(=O)NCCCN2CCOCC2)cc1 | 97 to 98 |
| NS(=O)(=O)c1cscc1C(=O)O | 222 to 224 |
| COc1ccc([C@@H]2CCCC[C@@H]2N)cc1OC | 80 to 81.5 |
| C=Cc1ccc(CN2CCNCCN(Cc3ccc(C=C)cc3)CC2)cc1 | 162 to 164 |
| Cc1cnc(NCCCNc2ncc(Cc3ccc(C)nc3)c(=O)[nH]2)c(C)c1 | 104 to 105 |
| CC(C)(C)OC(=O)N1CCC(c2nc3ccc(-c4ccc(S(C)(=O)=O)cc4F)cc3o2)CC1 | 174 to 178 |
| COc1ccc(Cl)n2nc(S(=O)(=O)Nc3c(F)cccc3F)nc12 | 190 to 191 |
| COC(=O)c1ccc(N)c(S(C)(=O)=O)c1 | 146 |
| CS(=O)(=O)c1ncc(F)c(N)n1 | 157 to 159 |
| CC(C)CC1(C(CCN2C(=O)c3c(F)c(F)c(F)c(F)c3C2=O)C(=O)NO)CCN(Cc2ccccc2)C1=O (stereo unspecified) | 183 to 185 |
| CCn1c(=O)c2c(nc(/C=C/c3cc(OC)ccc3OC(C)=O)n2C)n(CC)c1=O | 186 to 187 |
| O=C(Nc1cccnn1)N1CCN(c2cc(-c3ccc(F)cc3F)ncn2)CC1 | 249 to 250 |
| Cc1cc(Cl)ncc1C(=O)O | 170 to 172 |
| NC1CCCC(NC(=O)c2ccc(-c3[nH]nc4c3C(=O)c3c(NC(=O)NN5CCOCC5)cccc3-4)s2)C1 (stereo unspecified) | > 300 |

Second part, the molecule after the results:

| melting point [°C] | Structure (SMILES) |
| --- | --- |
| 250 to 252 | Cc1cc(C)c2nc(C3CC3)n(Cc3ccc(C4(C(=O)O)Cc5ccccc5C4)s3)c2n1 |
| 166 to 168 | CC(C)c1cccc(C(C)C)c1NC(=O)N(Cc1ccc(O)cc1)CC1(c2cccc(N(C)C)c2)CCCCC1 |
| 172 to 173 | COc1cc(C)nc(NC(=O)NS(=O)(=O)c2ccccc2C(=O)Nc2nncs2)n1 |
| > 300 | O=C1CCc2cc(N/C(=C3\C(=O)Nc4ccc([N+](=O)[O-])cc43)c3ccccc3)ccc2N1 |
| 75 to 77 | CCCCCOC(=O)CNC(=O)c1nc(Cl)c2ccc(OC(C)C)cc2c1O |
| 110 to 111 | NC(=O)c1ccc(OCCN(Cc2ccccc2)CC(O)c2ccc(OCc3ccccc3)c(OCc3ccccc3)c2)cc1 (stereo unspecified) |
| 149 to 151 | Cc1cccc(-c2n[nH]cc2-c2ccc(F)c(-c3ccc(C(C)O)cn3)c2)n1 (stereo unspecified) |
| 100 | CCCCOC(=O)C(=O)c1cc(-c2ccc(S(C)(=O)=O)cc2)n(-c2ccccc2)c1C |
| 228 | CNc1ccn2c(C(=O)c3ccc([N+](=O)[O-])c(OC)c3)c(C)c(C(=O)OCc3ccccc3)c2c1 |
| 95 to 97 | Cc1ccccc1-c1c(C(=O)N(C)C)ccc2ccccc12 |
| 155 | Cc1ccc(Sc2cc(C#N)ccc2C#N)cc1 |
| 134 to 135 | CCOC(=O)CCC(Oc1cc(OCc2ccsc2)ccc1C(N)=S)c1ccccc1C (racemic) |
| 128 to 131 | CSc1noc(-c2ccc(OCCOc3ccccc3)cc2)c1C#N |
| 149 | CN(C)C(=O)Nc1ccc(Oc2ccc3sncc3c2)c(Cl)c1 |
| 272 to 280 | Clc1ccc(-n2cc(-c3n[nH]c4ccccc34)nn2)cn1 |
| 88 to 89 | O=C(Nc1ccc(OCCCN2CCCC2=O)c2ccccc12)c1cc(F)cc(N2CCCCC2)c1 |
| 134 to 135 | CNc1cccc(NS(=O)(=O)c2ccc(N)cc2)c1 |
| 122 | CC(C)Oc1ccc(-c2nc(-c3ccc(OC(C)C)cc3O)nc(-c3ccc(OC(C)C)cc3O)n2)c(O)c1 |
| 87 to 88 | CCOC(=O)C(c1ccc(NC(=O)OC(C)(C)C)cc1)N(C)C(C)C (stereo unspecified) |
| 155 to 156 | CCCCNC(=O)[C@@H](C[C@H](O)[C@H](CC1CCCCC1)NC(=O)[C@H](Cc1cscn1)NC(=O)[C@@H](CC(=O)N(C)Cc1ccccc1)Cc1ccccc1)C(C)C |
| 134 to 136 | CCOC(=O)C1=C(C)NC(C)=C(C(=O)OC)C1c1ccccc1Br (stereo unspecified) |
